Experimental data as given in US20240209011A1, “HETEROAROMATIC PHOSPHONIUM SALTS FOR TREATING CANCER” (FLORATEK PHARMA S.A., priority 2021, published 2024).

Key:
Format in all cases: cell-based
[1] = tested on: OVCAR-3; experiment: Cell viability assay (CellTiter-Blue/CellTiter-Glow); settings: Homo sapiens; ovarian carcinoma cell line OVCAR-3; absolute IC50; 72 h
Method: (§1) Antitumor activity of the compounds and doxorubicin as a positive control was assessed by using the CellTiter-Blue Cell Viability Assay (Promega, #G8082) or CellTiter-Glow® Luminescent Cell Viability assay (Promega #G7572) according to the manufacturer's instructions. The compounds were tested at 5 or 6 concentrations in half-log increments (highest concentration 30 μM or 100 μM) in duplicate or triplicate well conditions.
(§2) Tumor cells were grown at 37° C. in a humidified atmosphere with 5% CO2 in RPMI 1640 or DMEM medium, supplemented with 10% (v/v) fetal calf serum and 50 μg/ml gentamicin for up to 20 passages, and were passaged once or twice weekly. Cells were harvested using TrypLE or PBS buffer containing 1 mM EDTA, and the percentage of viable cells is determined using a CASY Model TI cell counter (OMNI Life Science). Cells were harvested from exponential phase cultures, counted and plated in 96 well flat-bottom microtiter plates at a cell density depending on the cell line's growth rate (4,000-20,000 cells/well depending on the cell line's growth rate, up to 60,000 for hematological cancer cell lines) in RPMI 1640 or DMEM medium supplemented with 10% (v/v) fetal calf serum and 50 μg/ml gentamicin (140 μl/well). Cultures were incubated at 37° C. and 5% CO2 in a humidified atmosphere. After 24 h, 10 μl of test compounds or control medium were added, and left on the cells for another 72 h. Compounds were serially diluted in DMSO, transferred in cell culture medium, and added to the assay plates. The DMSO concentration was kept constant at <0.3% v/v across the assay plate. Viability of cells was quantified by the CellTiter-Blue® cell viability assay (Promega G8081) or CellTiter-Glow® Luminescent Cell Viability assay (Promega #G7572). Fluorescence (FU) was measured by using the EnSpire® multimode plate reader (Perkin Elmer) (excitation X=570 nm, emission λ=600 nm). Luminescence was measured with a microplate luminometer (Promega or PerkinElmer).
(§3) Sigmoidal concentration-response curves were fitted to the data points (test-versus-control, T/C values) obtained for each tumor model using 4 parameter non-linear curve fit (Charles River DRS Datawarehouse Software) or with GraphPad prism 5.02 software. IC50 values are reported as absolute IC50 values, being the concentration of test compound at the intersection of the concentration-response curves with T/C=50% Cell lines tested are presented in Table 1.

[2] = tested on: CALU-6; experiment: as above; settings: Homo sapiens; lung carcinoma cell line CALU-6; absolute IC50; 72 h
Method: as §1, §2, §3

[3] = tested on: SF-268; experiment: as above; settings: Homo sapiens; brain carcinoma cell line SF-268; absolute IC50; 72 h
Method: as §1, §2, §3

[4] = tested on: HCT-15; experiment: as above; settings: Homo sapiens; colon carcinoma cell line HCT-15; absolute IC50; 72 h
Method: as §1, §2, §3

[5] = tested on: KM-12; experiment: as above; settings: Homo sapiens, KM12; colon carcinoma cell line KM-12; absolute IC50
Method: as §1, §2, §3

[6] = tested on: A549; experiment: as above; settings: Homo sapiens; lung carcinoma cell line A549; absolute IC50; 72 h
Method: as §1, §2, §3

[7] = tested on: NCI-H460; experiment: as above; settings: Homo sapiens; lung carcinoma cell line NCI-H460; absolute IC50; 72 h
Method: as §1, §2, §3

[8] = tested on: HT-29; experiment: as above; settings: Homo sapiens; colon carcinoma cell line HT-29; absolute IC50; 72 h
Method: as §1, §2, §3

[9] = tested on: U-87; experiment: as above; settings: Homo sapiens, U-87 MG; brain carcinoma cell line U-87; absolute IC50; 72 h
Method: as §1, §2, §3

[10] = tested on: Mia-Pa-Ca-2; experiment: as above; settings: Homo sapiens, MIA PaCa-2; pancreatic carcinoma cell line Mia-Pa-Ca-2; absolute IC50; 72 h
Method: as §1, §2, §3

[11] = tested on: esophagus PDX; experiment: Activity against esophagus PDX; settings: esophagus PDX growth; summary of Table 10
Method: (§4) PDX-derived cell cultures were obtained from tumors explanted from mice and isolated by mechanical and enzymatic dissociation. […] Cells were harvested and seeded in 96-wells plates at a density of 1.25 to 5×10^3 cells/well for cytotoxicity assays. Cells were incubated 48 h at 37° C. prior to addition of test molecules and vehicle (DMSO, 0.1%) at desired final concentrations. Cell viability was assessed before drugs' addition (To) and 5 days after test molecules addition by measuring ATP cell content using CellTiter-Glo® Luminescent Cell Viability Assay (Promega) according to the manufacturer's instructions. Luciferase activity was measured on a luminometer (PerkinElmer® EnVision™). Each concentration of compounds was tested in triplicate.
(§5) Viability was calculated as a percentage of ATP value compared to vehicle treated controls.
(§6) For PDX primary cell cultures, the tumour tissue was washed with PBS containing antibiotic-antimycotic and non-tumour tissue and necrotic tumour tissues were separated. The tumour tissue was transferred to a new dish and cut into 1-2 mm^3 fragments, resuspended in RPMI-1640 medium and centrifuged at 1,200 rpm for 6 min at room temperature. The pelleted material was resuspended with 15 mL of Tumour Cell Digestion Solution and incubated at 37° C. for 1 hour with agitation. Following further addition of media, centrifugation and passage through a […] cell strainer, the homogenous cell mixture was layered onto 15 mL of Ficoll-Paque PLUS in a 50 mL conical tube and centrifuged for 15 min at 1,600 rpm. The interface cells were collected, washed with media, separated by centrifugation at 1,200 rpm. The cell pellet was resuspended in serum free media supplemented with growth factors. 10,000 cells/wells were plated in a 96 well plate and incubated at 37° C., 5% CO2, 95% air and 100% relative humidity overnight. The cytotoxicity assay was conducted as above. IC50 values represent absolute IC50.

[12] = tested on: pancreatic PDX; experiment: Activity against pancreatic PDX; settings: pancreatic PDX growth; summary of Table 20
Method: as §4, §5, §6

[13] = tested on: bile duct PDX; experiment: Activity against bile duct PDX; settings: bile duct PDX growth; summary of Table 3
Method: as §4, §5, §6

[14] = tested on: SK-OV-3; experiment: Cell viability assay (CellTiter-Blue/CellTiter-Glow); settings: Homo sapiens; ovarian carcinoma cell line SK-OV-3; absolute IC50; 72 h
Method: as §1, §2, §3

[15] = tested on: K-562; experiment: as above; settings: Homo sapiens, K562; leukaemia cell line K-562; absolute IC50; 72 h
Method: as §1, §2, §3

[16] = tested on: H1299; experiment: as above; settings: Homo sapiens, NCI-H1299; lung carcinoma cell line H1299; absolute IC50; 72 h
Method: as §1, §2, §3

SMILES	IC50 [1] [µM]	IC50 [2] [µM]	IC50 [3] [µM]	IC50 [4] [µM]	IC50 [5] [µM]	IC50 [6] [µM]	IC50 [7] [µM]	IC50 [8] [µM]	IC50 [9] [µM]	IC50 [10] [µM]	IC50 [11] [µM]	IC50 [12] [µM]	IC50 [13] [µM]	IC50 [14] [µM]	IC50 [15] [µM]	IC50 [16] [µM]
O=c1cc(-c2ccc(CCCC[P+](c3ccccc3)(c3ccccc3)c3ccccc3)cc2)oc2c3c(ccc12)OCO3.[Br-] [SND123, 4-[4-(6-oxo-[1,3]dioxolo[4,5-h]chromen-8-yl)phenyl]butyl-triphenylphosphonium bromide]	2.36	1.14	3.15	9.3	3	8.08	5.04	9.3	0.87	1.32	< 20	< 20	< 20			
CCNC(=O)Oc1ccc2c(=O)cc(-c3ccc(CCCC[P+](c4ccccc4)(c4ccccc4)c4ccccc4)cc3)oc2c1O.[Br-] [SND126A, 4-[4-[7-(Ethylcarbamoyloxy)-8-hydroxy-4-oxo-chromen-2-yl]phenyl]butyltriphenylphosphonium bromide]	6.54		10.7		3.2					0.96	< 20	< 20	< 20			
O=c1cc(-c2ccc(CCCC[P+](c3ccccc3)(c3ccccc3)c3ccccc3)cc2)oc2c(O)c(O)ccc12 [SND118, 4-[4-(7,8-dihydroxy-4-oxo-chromen-2-yl)phenyl]butyltriphenyl-phosphonium bromide]	7.3	1.47	15.6	3.3		12.5	0.29	10.3	1.76	1.9				6.35	0.14	1.28
CC(C)NC(=O)Oc1ccc2c(=O)cc(-c3ccc(CCCC[P+](c4ccccc4)(c4ccccc4)c4ccccc4)cc3)oc2c1O [SND127, 4-[4-[7-(Isopropylcarbamoyloxy)-8-hydroxy-4-oxo-chromen-2-yl]phenyl]butyltriphenylphosphonium bromide]	5.7	7.13	11.9			5.3	5.58	6.4	3.8	1.81			< 20	11.5	1.23	12.7
COc1c(O)ccc2c(=O)cc(-c3ccc(CCCC[P+](c4ccccc4)(c4ccccc4)c4ccccc4)cc3)oc12.[Br-] [SND140, (4-(4-(7-hydroxy-8-methoxy-4-oxo-4H-chromen-2-yl)phenyl)butyl)triphenylphosphonium bromide]	8.87	3.8	9.5		5.6		10.8	14.2	5.4		< 20	< 20	< 20			
CCNC(=O)Oc1ccc2c(=O)cc(-c3ccc(CCCC[P+](c4ccccc4)(c4ccccc4)c4ccccc4)cc3)oc2c1OC(=O)NCC.[Br-] [SND124, 4-[4-[7,8-Bis(ethylcarbamoyloxy)-4-oxo-chromen-2-yl]phenyl]-butyltriphenylphosphonium bromide]				10	2.7	11.2		2.96	1.18	4.8	< 20	< 20	< 20	3.4	0.02	4.27
